{"source": "BindingDB's records for doi:10.1007/bf00176615", "about": "(Sandoz Pharma, 1992)", "key": {"Mu-type opioid receptor": {"target": "Mu-type opioid receptor (Rattus norvegicus, UniProt P33535)", "sequence (P33535 whole entry)": "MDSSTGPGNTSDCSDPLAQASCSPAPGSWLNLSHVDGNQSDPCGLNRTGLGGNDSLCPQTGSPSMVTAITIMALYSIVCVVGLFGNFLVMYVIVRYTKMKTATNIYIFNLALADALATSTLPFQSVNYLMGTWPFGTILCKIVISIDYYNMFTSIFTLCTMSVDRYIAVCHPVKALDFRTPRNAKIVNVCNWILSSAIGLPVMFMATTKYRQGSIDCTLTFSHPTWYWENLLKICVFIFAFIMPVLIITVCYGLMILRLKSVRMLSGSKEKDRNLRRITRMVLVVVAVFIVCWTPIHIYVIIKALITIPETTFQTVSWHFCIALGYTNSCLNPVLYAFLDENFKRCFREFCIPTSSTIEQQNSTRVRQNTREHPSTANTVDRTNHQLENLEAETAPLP"}, "[1]": {"target": "T1, Alpha-2A adrenergic receptor (Bos taurus, UniProt Q28838)", "T1 sequence (Q28838 whole entry)": "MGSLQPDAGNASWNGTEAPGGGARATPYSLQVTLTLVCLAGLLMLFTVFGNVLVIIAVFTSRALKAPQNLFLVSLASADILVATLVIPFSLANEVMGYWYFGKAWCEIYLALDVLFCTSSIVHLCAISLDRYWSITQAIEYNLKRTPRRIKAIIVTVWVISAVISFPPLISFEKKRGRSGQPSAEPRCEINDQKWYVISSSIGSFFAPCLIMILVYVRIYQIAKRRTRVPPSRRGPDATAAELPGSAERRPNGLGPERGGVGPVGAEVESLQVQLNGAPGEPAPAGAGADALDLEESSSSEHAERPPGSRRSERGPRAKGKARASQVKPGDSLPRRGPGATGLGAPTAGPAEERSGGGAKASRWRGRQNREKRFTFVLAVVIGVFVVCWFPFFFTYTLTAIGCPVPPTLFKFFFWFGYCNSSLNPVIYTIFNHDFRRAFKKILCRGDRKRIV"}, "[2]": {"target": "T2, 5-hydroxytryptamine receptor 2C (Sus scrofa, UniProt G7ZKZ7)", "T2 sequence (G7ZKZ7 whole entry)": "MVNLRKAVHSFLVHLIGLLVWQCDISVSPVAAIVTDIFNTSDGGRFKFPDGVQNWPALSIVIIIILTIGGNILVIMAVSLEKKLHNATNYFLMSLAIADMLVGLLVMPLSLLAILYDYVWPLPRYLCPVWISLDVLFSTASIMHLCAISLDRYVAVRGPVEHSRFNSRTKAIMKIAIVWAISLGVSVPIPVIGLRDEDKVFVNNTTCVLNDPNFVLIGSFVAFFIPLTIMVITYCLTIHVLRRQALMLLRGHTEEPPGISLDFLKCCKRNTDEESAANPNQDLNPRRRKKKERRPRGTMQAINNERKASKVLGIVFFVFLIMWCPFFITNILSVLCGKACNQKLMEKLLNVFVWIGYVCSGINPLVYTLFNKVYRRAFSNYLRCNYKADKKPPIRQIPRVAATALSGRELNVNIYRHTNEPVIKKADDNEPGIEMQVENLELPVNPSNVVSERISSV"}, "[3]": {"target": "T3, Alpha-1A adrenergic receptor (Bos taurus, UniProt P18130)", "T3 sequence (P18130 whole entry)": "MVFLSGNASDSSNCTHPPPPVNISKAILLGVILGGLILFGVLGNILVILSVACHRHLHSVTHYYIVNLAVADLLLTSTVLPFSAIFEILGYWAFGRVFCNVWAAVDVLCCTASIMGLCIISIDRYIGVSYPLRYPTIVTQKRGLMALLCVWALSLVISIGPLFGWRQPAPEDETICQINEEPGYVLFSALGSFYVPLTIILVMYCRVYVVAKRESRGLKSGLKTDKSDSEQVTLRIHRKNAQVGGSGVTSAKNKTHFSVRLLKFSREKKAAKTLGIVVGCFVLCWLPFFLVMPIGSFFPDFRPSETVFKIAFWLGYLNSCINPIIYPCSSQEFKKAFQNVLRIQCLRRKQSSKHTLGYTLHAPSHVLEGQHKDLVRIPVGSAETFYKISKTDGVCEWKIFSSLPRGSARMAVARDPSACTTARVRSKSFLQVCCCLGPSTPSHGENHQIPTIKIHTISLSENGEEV"}, "[4]": {"target": "5-hydroxytryptamine 1D receptor (Bos taurus, UniProt Q8MI13)", "sequence (Q8MI13 whole entry)": "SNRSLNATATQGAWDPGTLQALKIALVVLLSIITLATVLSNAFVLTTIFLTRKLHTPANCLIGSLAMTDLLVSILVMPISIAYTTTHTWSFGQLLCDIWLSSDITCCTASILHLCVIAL"}, "[5]": {"target": "5-hydroxytryptamine receptor 2A (Rattus norvegicus, UniProt P14842)", "sequence (P14842 whole entry)": "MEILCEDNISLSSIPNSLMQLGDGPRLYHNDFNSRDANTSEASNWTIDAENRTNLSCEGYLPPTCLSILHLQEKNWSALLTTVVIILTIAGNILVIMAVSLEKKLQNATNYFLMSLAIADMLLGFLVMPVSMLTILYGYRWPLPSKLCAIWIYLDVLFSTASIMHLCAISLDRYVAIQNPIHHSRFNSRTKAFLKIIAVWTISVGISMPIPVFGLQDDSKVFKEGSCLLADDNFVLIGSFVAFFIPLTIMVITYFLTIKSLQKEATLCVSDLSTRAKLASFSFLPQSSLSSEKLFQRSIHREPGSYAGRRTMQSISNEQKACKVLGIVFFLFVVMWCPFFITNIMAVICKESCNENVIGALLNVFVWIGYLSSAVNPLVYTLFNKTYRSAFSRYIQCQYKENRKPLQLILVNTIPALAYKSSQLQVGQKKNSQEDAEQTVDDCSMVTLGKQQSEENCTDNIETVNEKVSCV"}}, "data": [{"compound": "CCN(CC)CCOC(=O)c1cc(Cl)c(N)cc1OC", "note": "[SDZ-205557]", "values": [{"measurement": "Ki", "setting": "Mu-type opioid receptor", "value": "> 10", "unit": "µM"}, {"measurement": "Ki", "setting": "[1]", "value": "> 10", "unit": "µM"}, {"measurement": "Ki", "setting": "[2]", "value": 3.98, "unit": "µM"}, {"measurement": "Ki", "setting": "[3]", "value": 6.31, "unit": "µM"}, {"measurement": "Ki", "setting": "[4]", "value": 2.51, "unit": "µM"}, {"measurement": "Ki", "setting": "[5]", "value": "> 10", "unit": "µM"}]}]}
